How the values were obtained:
[1] = xn = mol fraction of the nth substance listed; details: 100 kPa, Liquid, x1 = 1; for speed of sound: Frequency=3 MHz, Linear variable-path acoustic interferometer; for mass density: Pycnometric method
[2] = 100 kPa, Liquid; for speed of sound: Frequency=3 MHz, Linear variable-path acoustic interferometer; for mass density: Pycnometric method

CC#N [acetonitrile] + C=C(C)C(=O)OC
[1]
Details | mass density [kg/m3] | speed of sound [m/s]
293.15 K | 782.12 | 1304.7
298.15 K | 776.82 | 1282.8
303.15 K | 771.52 | 1263.9
308.15 K | 766.21 | 1245
313.15 K | 760.9 | 1226.5
318.15 K | 755.59 | 1207.9

C=C(C)C(=O)OCCCC [butyl 2-methyl-2-propenoate]
[2]
Details | mass density [kg/m3] | speed of sound [m/s]
293.15 K | 895.19 | 1241.7
298.15 K | 890.48 | 1222.1
303.15 K | 885.78 | 1202.4
308.15 K | 881.07 | 1183
313.15 K | 876.35 | 1163.8
318.15 K | 871.64 | 1145.7

CC#N [acetonitrile] + C=C(C)C(=O)OCCCC
[1]
Details | mass density [kg/m3] | speed of sound [m/s]
293.15 K | 782.12 | 1304.7
298.15 K | 776.82 | 1282.8
303.15 K | 771.52 | 1263.9
308.15 K | 766.21 | 1245
313.15 K | 760.9 | 1226.5
318.15 K | 755.59 | 1207.9

CC#N [acetonitrile]
[2]
Details | mass density [kg/m3] | speed of sound [m/s]
293.15 K | 782.12 | 1304.7
298.15 K | 776.82 | 1282.8
303.15 K | 771.52 | 1263.9
308.15 K | 766.21 | 1245
313.15 K | 760.9 | 1226.5
318.15 K | 755.59 | 1207.9

C=C(C)C(=O)OCC [ethyl 2-methylpropenoate]
[2]
Details | mass density [kg/m3] | speed of sound [m/s]
293.15 K | 912.3 | 1196.8
298.15 K | 907.18 | 1176.9
303.15 K | 902.06 | 1157.6
308.15 K | 896.94 | 1139.4
313.15 K | 891.83 | 1121.5
318.15 K | 886.71 | 1104.6

C=C(C)C(=O)OC [methyl methacrylate]
[2]
Details | mass density [kg/m3] | speed of sound [m/s]
293.15 K | 943.38 | 1200.5
298.15 K | 937.64 | 1183.6
303.15 K | 931.9 | 1168.5
308.15 K | 926.16 | 1152.6
313.15 K | 920.42 | 1135.4
318.15 K | 914.67 | 1118.3

CC#N [acetonitrile] + C=C(C)C(=O)OCC
[1]
Details | mass density [kg/m3] | speed of sound [m/s]
293.15 K | 782.12 | 1304.7
298.15 K | 776.82 | 1282.8
303.15 K | 771.52 | 1263.9
308.15 K | 766.21 | 1245
313.15 K | 760.9 | 1226.5
318.15 K | 755.59 | 1207.9
